In US20260266834A1, “Compositions And Methods For Detecting Proteins In Protein Corona” (Board of Trustees of Michigan State University, priority 2023, published 2026):

Biological target: T1, albumin (Homo sapiens, UniProt P02768)
T1 construct: commercial pooled healthy human plasma diluted to 55% by PBS; from tissue; host or cells: commercial pooled healthy human plasma
Assay: Abundance of albumin in protein corona proteome by LC-MS/MS
Details: PtdChos 1000 μg/ml; plasma alone over 81%
Experimental: For protein corona formation in the presence of small molecules, commercial pooled healthy human plasma diluted to 55% by PBS was first incubated with the individual small molecules or a combination of small molecules at varying concentrations (i.e., 10, 100, and 1,000 μg/ml) for 1 hour at 37° C., allowing the small molecules to interact with the biological matrix. The small molecule combinations included each of the four small molecules (glucose, triacylglycerols, diacylglycerols, and PtdChos for combination 1; PE, PtdIns, IMP, and vitamin B complex for combination 2) at the given concentration. […]
Initial processing: NPs coated with protein corona were first washed with PBS and then resuspended in 30 μl of PBS, enriched with 15 mM phosphate (pH 7.4). The bound total protein content was estimated to be around 1 μg per sample, determined via a Micro BCA™ assay (Thermo Scientific™). […]
LC-MS/MS Analysis: Dried samples were reconstituted with 1 μg of peptides in 25 μl of liquid chromatography (LC) loading buffer (3% acetonitrile (ACN), 0.1% trifluoroacetic acid (TFA)) and analyzed using LC-MS/MS. A 60-minute gradient was applied in the label-free quantification (LFQ) mode, with 5 μl aliquots injected in triplicate. Control samples (55% human plasma) were prepared with 8 μg of peptides in 200 μl of loading buffer and analyzed similarly. […]

T1 sequence (P02768 25-609): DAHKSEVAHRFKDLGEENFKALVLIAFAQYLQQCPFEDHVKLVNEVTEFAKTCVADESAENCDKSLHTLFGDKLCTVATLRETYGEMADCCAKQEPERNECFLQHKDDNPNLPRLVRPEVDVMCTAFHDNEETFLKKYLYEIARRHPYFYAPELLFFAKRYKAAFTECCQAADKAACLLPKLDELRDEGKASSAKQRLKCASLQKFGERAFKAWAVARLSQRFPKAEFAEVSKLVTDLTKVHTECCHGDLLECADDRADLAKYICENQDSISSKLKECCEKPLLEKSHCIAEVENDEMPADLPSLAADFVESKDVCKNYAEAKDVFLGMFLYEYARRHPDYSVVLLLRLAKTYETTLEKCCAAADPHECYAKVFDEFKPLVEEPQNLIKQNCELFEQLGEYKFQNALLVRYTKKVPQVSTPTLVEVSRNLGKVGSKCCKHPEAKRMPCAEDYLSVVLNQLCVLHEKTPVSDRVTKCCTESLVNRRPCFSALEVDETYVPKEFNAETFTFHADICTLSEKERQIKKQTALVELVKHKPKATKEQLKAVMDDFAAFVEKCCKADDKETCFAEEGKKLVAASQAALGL

Substance: phosphatidylcholine [PtdChos]
- albumin representation (share of proteins): around 17%
